Measured values taken from patent publication US6689767B2, “Triterpenes having antibacterial activity” (Regents of the University of Minnesota, priority 2000, dated 2004).
Values after ≈ are worked out from the molar mass of the structure shown.

How the values were obtained:
Escherichia coli = assay: Kirby-Bauer disk diffusion growth inhibition, Escherichia coli; format: cell-based; settings: for zone of inhibition at 0.125 µg/mL: Escherichia coli, read-out: Zone of inhibition Escherichia coli; for zone of inhibition at 0.125 µg/mL / Zone of inhibition Escherichia coli: 100 μl on 10 mm disk, 18 hours 37° C.; for Active against: Table 1 summary, E. coli; for effectiveness against E. Coli: Tables 1a and 1b
Experimental: (§1) The compounds disclosed herein were tested for growth inhibition against four strains of bacteria: Escherichia coli, Staphylococcus aureus, methicillin-resistant Staphylococcus aureus, and Bacillus subtilis. […] They represent […]. E. coli is a gram-negative, non-spore forming, rod-shaped, opportunistic pathogen that resides in the human digestive tract. S. aureus is a gram positive coccus, is usually found morphologically as a […], and is an opportunistic human pathogen, often residing on or in the skin. B. subtilis is a gram positive spore-forming rod. Its native environment is the soil. The chemicals were tested for growth-inhibition of the bacteria by the Kirby-Bauer method. See, e.g., Microbiology, third edition; Lansing M. Prescott, John P. Harley, and Donald A. Klein; Wm. C. Brown Publishers.
(§2) Mueller-Hinton agar (Difco Lab, Michigan) was prepared according to the manufacturer's directions, and 20 ml was dispensed in each sterile petri dish. Sterile nutrient broth (Difco Lab, Michigan) was also prepared according to the manufacturer's directions.
(§3) Bacteria were grown in liquid nutrient broth for 18 hours at 37° C. until they were turbid.
(§4) An aliquot of 0.5 ml of cultured bacteria was aseptically transferred to the surface of a Mueller-Hinton agar plat, and spread using a cotton-tipped swab. Plates were then allowed to dry for 5 minutes. Then a 10 mm diameter filter paper disk impregnated with the test chemical was placed with sterile forceps on the plate. The disks were impregnated with 100 μl of a solution of the test compound in DMSO or in water, at the indicated concentrations in Table 1.
(§5) The zones of inhibition were measured after 18 hours growth at 37° C. Tests were done in triplicate.
(§6) Additional compounds were tested for activity against E. coli, laboratory strain S. aureus (not methicillin resistant), and B. subtilis. The compounds were tested by the disk diffusion method, as in Example 1, with application of a 10 mg/mil solution of the test compound in DMSO.

Staphylococcus aureus [1] = assay: Kirby-Bauer disk diffusion growth inhibition, Staphylococcus aureus; format: cell-based; settings: for zone of inhibition at 0.125 µg/mL / Zone of inhibition Staphylococcus aureus: 100 μl on 10 mm disk, 18 hours 37° C.; for zone of inhibition at 0.125 µg/mL: read-out: Zone of inhibition Staphylococcus aureus; for Active against: Table 1 summary, S. aureus
Experimental: as §1, §2, §3, §4, §5, §6
(§7) Derivatives of lupeol were tested for inhibition of bacterial growth using the Kirby-Bauer disk diffusion method and by growth in liquid culture. For the disk diffusion method, compounds were dissolved in DMSO and 100 μl was added to the 10 mm filter paper disk. The amount of compound applied to the disk varied. The amount applied for each compound was as follows: lupeol (50 μg), lupeol-3-maleate (15 μg), lupeol-3-thiodiglycolate (15 μg), lupeol-3-dimethyl succinate (60 μg), lupeol-3-phosphate (30 μg), lupenone (50 μg), lupenon-3-oxime (50 μg), lupeol-3-amine (50 μg), lupenon-1,2-ene-2-ol (50 μg). In liquid culture, the compounds were dissolved in DMSO at 1 mg/ml and then 100 μl was added to 7 ml of sterile broth, along with a 1/200 dilution of freshly grown bacterial liquid culture.

Bacillus subtilis = assay: Kirby-Bauer disk diffusion growth inhibition, Bacillus subtilis; format: cell-based; settings: 100 μl on 10 mm disk, 18 hours 37° C.; for zone of inhibition at 0.125 µg/mL: Bacillus subtilis, read-out: Zone of inhibition Bacillus subtilis
Experimental: as §1, §2, §3, §4, §5, §6

E. Coli = assay: Minimum inhibitory concentration in tryptic soy broth, E. coli; format: cell-based, Escherichia coli; settings: 24 hours 37° C., turbidity
Experimental: Sterile tryptic soy broth was prepared according to the manufacturer's instructions (Difco Lab, Michigan). To each tube containing 7 ml of broth, test compounds dissolved in DMSO were added at different concentrations in triplicate. The tubes were incubated for 24 hours at 37° C. and then turbidity was measured using a […]. The colorimeter was calibrated with sterile broth. The MIC was the lowest concentration that could prevent an increase in turbidity.

bacteria = assay: Summary statements over the antibacterial assays above; format: cell-based; settings: summary list
[2] = system: Staphylococcus epidemidis; assay: Kirby-Bauer disk diffusion of lupeol derivatives, Staphylococcus epidermidis; format: cell-based; settings: for activity against S. epidermidis: Example 35, disk diffusion and liquid growth; for Active against: Table 1 summary, S. epidermidis
Experimental: as §7

Enterococcus faecalis = assay: Kirby-Bauer disk diffusion of lupeol derivatives, Enterococcus faecalis; format: cell-based; settings: for Active against: Table 1 summary, E. faecalis
Experimental: as §7

Staphylococcus epidermis = assay: Growth in liquid culture, optical density, S. epidermidis; format: cell-based, Staphylococcus epidermidis; settings: 600 nm, 24 hours growth, test compound at 14 μg per ml; None = 0.07
Experimental: as §7

Staphylococcus aureus [3] = assay: Growth in liquid culture, optical density, S. aureus; format: cell-based; settings: 600 nm, 24 hours growth, test compound at 14 μg per ml; None = 0.08
Experimental: as §7

Enterococcus faecilis = assay: Growth in liquid culture, optical density, E. faecalis; format: cell-based, Enterococcus faecalis; settings: 600 nm, 24 hours growth, test compound at 14 μg per ml; None = 0.85
Experimental: as §7

[4] = Staphylococcus aureus, 125 ng/ml in water
[5] = 50 μg applied to 10 mm disk in DMSO
[6] = Example 35, 15 μg applied to 10 mm disk in DMSO
[7] = 15 μg applied to 10 mm disk in DMSO
[8] = 30 μg applied to 10 mm disk in DMSO

SMILES | zone of inhibition at 0.125 µg/mL (Escherichia coli; 125 ng/ml in water) [mm] | zone of inhibition at 0.125 µg/mL (Staphylococcus aureus [1]; [4]) [mm] | zone of inhibition at 0.125 µg/mL (Bacillus subtilis; 125 ng/ml in water) [mm] | active against at least one strain of bacteria in the assays above (bacteria) | Active against (Staphylococcus aureus [1]) | Active against (Enterococcus faecalis) | Optical Density of S. epiderm (Staphylococcus epidermis) | Optical Density of S. aureus (Staphylococcus aureus [3]) | Optical Density of E. faecalis (Enterococcus faecilis) | also measured
CC(=O)OC1CC[C@@]2(C)C(CC[C@]3(C)C2CCC2C4C5OC(=O)C4(CCC5(C)C)CC[C@@]23C)C1(C)C (stereo partly drawn) [Allobetulin lactone-3-acetate, 3-O-acetyl allobetulin-lactone] | – | – | – | – | – | – | – | – | – | melting point: 312.5 to 315.4 °C (dec.)
CC1(C)CCC23CC[C@@]4(C)C(CCC5[C@@]6(C)C=C(O)C(=O)C(C)(C)C6CC[C@]54C)C2C1OC3=O (stereo partly drawn) [Allobetulon-lactone-1-ene-2-ol, allobetulon lactone-1-ene-2-ol] | 0 | 0 | 0 | – | – | – | – | – | – | melting point: 238.8 to 243.6 °C
C=C(C)[C@@H]1CC[C@]2(COC(=O)COCC(=O)O)CC[C@]3(C)[C@H](CC[C@@H]4[C@@]5(C)CC[C@H](OC(=O)COCC(=O)O)C(C)(C)[C@@H]5CC[C@]43C)[C@@H]12 [Betulin 3,28-didiglycolate, Betulin-3,28-didiglycolate] | – | – | – | active against at least one strain of bacteria | – | – | – | – | – | Zone of inhibition Escherichia coli (Escherichia coli; 10 mg/ml in DMSO): 0 mm; Active against (Escherichia coli): E. coli; effectiveness against E. Coli (Escherichia coli): effective; Zone of inhibition Staphylococcus aureus (Staphylococcus aureus [1]; 10 mg/ml in DMSO): 0 mm; Zone of inhibition Bacillus subtilis (Bacillus subtilis; 10 mg/ml in DMSO): 0 mm; MIC (E. Coli): 0.282 µM (≈ 0.19 µg/mL)
C=C(C)[C@@H]1CC[C@]2(COC(=O)CCCC(=O)O)CC[C@]3(C)[C@H](CC[C@@H]4[C@@]5(C)CC[C@H](OC(=O)CCCC(=O)O)C(C)(C)[C@@H]5CC[C@]43C)[C@@H]12 [Betulin 3,28-diglutarate, Betulin-3,28-diglutarate] | – | – | – | active against at least one strain of bacteria | – | – | – | – | – | Zone of inhibition Escherichia coli (Escherichia coli; 125 ng/ml in water): 12.0 mm; Zone of inhibition Escherichia coli (Escherichia coli; 10 mg/ml in DMSO): 0 mm; Active against (Escherichia coli): E. coli; effectiveness against E. Coli (Escherichia coli): effective; Zone of inhibition Staphylococcus aureus (Staphylococcus aureus [1]; 125 ng/ml in water): 0 mm; Zone of inhibition Staphylococcus aureus (Staphylococcus aureus [1]; 10 mg/ml in DMSO): 0 mm; Zone of inhibition Bacillus subtilis (Bacillus subtilis; 125 ng/ml in water): 0 mm; Zone of inhibition Bacillus subtilis (Bacillus subtilis; 10 mg/ml in DMSO): 0 mm; MIC (E. Coli): 0.282 µM (≈ 0.189 µg/mL)
C=C(C)C1CCC2(COP(=O)(O)O)CC[C@@]3(C)C(CCC4[C@@]5(C)CCC(OP(=O)(O)O)C(C)(C)C5CC[C@]43C)C12 (stereo partly drawn) [Betulin 3,28-diphosphate, Betulin-3,28-diphosphate] | 11 | 0 | 0 | active against at least one strain of bacteria | – | – | – | – | – | Active against (Escherichia coli): E. coli; effectiveness against E. Coli (Escherichia coli): effective; MIC (E. Coli; Escherichia coli): 0.282 µM (≈ 0.17 µg/mL)
C=C(C)[C@@H]1CCC2(CO)CC[C@@]3(C)C(CCC4[C@@]5(C)C=C(O)C(=O)C(C)(C)C5CC[C@]43C)C12 (stereo partly drawn) [Betulon-1,2-ene-ol, betulon-1-ene-2-ol] | 0 | 0 | 0 | – | – | – | – | – | – | melting point: 167 to 170 °C (dec.)
C=C(C)[C@@H]1CC[C@]2(C)CC[C@]3(C)[C@H](CC[C@@H]4[C@@]5(C)CCC(N)C(C)(C)[C@@H]5CC[C@]43C)[C@@H]12 (stereo partly drawn) [Lupeol-3-amine] | – | – | – | active against at least one strain of bacteria | S. aureus, | E. faecalis | 0.06 | 0.06 | 0.04 | Zone of inhibition (mm) against S. aureus (Staphylococcus aureus [1]; Example 35, 50 μg applied to 10 mm disk in DMSO): 0.3 mm; Zone of inhibition (mm) against S. epiderm. [2, 5]: 0 mm; Zone of inhibition (mm) against E. faecalis (Enterococcus faecalis; [5]): 0.5 mm
C=C(C)C1CCC2(C)CCC3(C)C(CCC4C5(C)CCC(OC(=O)C=CC(=O)O)C(C)(C)C5CCC43C)C12 (stereo not drawn) [Lupeol-3-maleate] | – | – | – | active against at least one strain of bacteria | S. aureus, | E. faecalis | 0.04 | 0.06 | 0.03 | Zone of inhibition (mm) against S. aureus (Staphylococcus aureus [1]; [6]): 0.4 mm; Zone of inhibition (mm) against S. epiderm. [2, 7]: 0.5 mm; activity against S. epidermidis [2]: active; Active against [2]: S. epidermidis,; Zone of inhibition (mm) against E. faecalis (Enterococcus faecalis; [7]): 1.15 mm
C=C(C)[C@@H]1CC[C@]2(C)CC[C@]3(C)[C@H](CC[C@@H]4[C@@]5(C)CC[C@H](OP(=O)(O)O)C(C)(C)[C@@H]5CC[C@]43C)[C@@H]12 [Lupeol-3-phosphate] | – | – | – | active against at least one strain of bacteria | S. aureus, | E. faecalis | 0.06 | 0.06 | 0.04 | Zone of inhibition (mm) against S. aureus (Staphylococcus aureus [1]; Example 35, 30 μg applied to 10 mm disk in DMSO): 0.5 mm; Zone of inhibition (mm) against S. epiderm. [2, 8]: 0 mm; Zone of inhibition (mm) against E. faecalis (Enterococcus faecalis; [8]): 0.5 mm
C=C(C)[C@@H]1CC[C@]2(C)CC[C@]3(C)[C@H](CC[C@@H]4[C@@]5(C)CC[C@H](OC(=O)CSCC(=O)O)C(C)(C)[C@@H]5CC[C@]43C)[C@@H]12 [Lupeol-3-thiodiglycolate] | – | – | – | active against at least one strain of bacteria | S. aureus, | E. faecalis | 0.035 | 0.06 | 0.04 | Zone of inhibition (mm) against S. aureus (Staphylococcus aureus [1]; [6]): 0.3 mm; Zone of inhibition (mm) against S. epiderm. [2, 7]: 0.5 mm; activity against S. epidermidis [2]: active; Active against [2]: S. epidermidis,; Zone of inhibition (mm) against E. faecalis (Enterococcus faecalis; [7]): 0.75 mm
C=C(C)[C@@H]1CC[C@]2(C)CC[C@@]3(C)C(CCC4[C@@]5(C)CC[C@H](O)C(C)(C)C5CC[C@]43C)C12 (stereo partly drawn) [Lupeol] | 0 | 0 | 0 | active against at least one strain of bacteria | S. aureus, | Enterococcus faecalis | 0.04 | 0.06 | 0.03 | zone of inhibition at 50 µg/disc (Staphylococcus aureus [1]; Staphylococcus aureus, Example 35, 50 μg applied to 10 mm disk in DMSO, read-out: Zone of inhibition (mm) against S. aureus): 1 mm; activity against S. epidermidis [2]: active; zone of inhibition at 50 µg/disc ([2]; Staphylococcus, 50 μg applied to 10 mm disk in DMSO, read-out: Zone of inhibition (mm) against S. epiderm.): 0 mm; Active against [2]: S. epidermidis; zone of inhibition at 50 µg/disc (Enterococcus faecalis; Enterococcus faecalis, 50 μg applied to 10 mm disk in DMSO, read-out: Zone of inhibition (mm) against E. faecalis): 1.4 mm
